Results published in US7608619B2, “Substituted oxazole compounds with analgesic activity” (Gruenenthal GmbH, priority 2005, dated 2009).

target: T1, human μ-opiate receptor (Homo sapiens, UniProt P35372); assay: Affinity for the human μ-opiate receptor ([3H]-naloxone displacement, SPA, CHO-K1 membrane preparation); details: test substance 1 μmole/l; displacement of 1 nmole/l [3H]-naloxone; percentage inhibition of the specific binding; read-out: μ-opioid receptor, % inhibition [1 μM]
T1 construct: purchased Nen company, Zaventem, Belgium RB-HOM; host or cells: CHO-K1 cells (membrane preparation)
T1 sequence (P35372 whole entry): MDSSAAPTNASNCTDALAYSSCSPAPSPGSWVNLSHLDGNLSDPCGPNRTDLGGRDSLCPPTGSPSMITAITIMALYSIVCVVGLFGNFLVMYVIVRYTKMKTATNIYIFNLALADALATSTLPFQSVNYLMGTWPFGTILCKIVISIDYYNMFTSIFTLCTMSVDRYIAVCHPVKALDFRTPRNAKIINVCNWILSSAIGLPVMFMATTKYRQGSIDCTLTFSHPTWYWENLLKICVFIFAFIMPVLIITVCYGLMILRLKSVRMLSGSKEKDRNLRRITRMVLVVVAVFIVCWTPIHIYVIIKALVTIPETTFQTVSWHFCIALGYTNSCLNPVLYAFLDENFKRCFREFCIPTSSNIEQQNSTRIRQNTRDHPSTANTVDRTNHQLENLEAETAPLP
Outline: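 [3H]-naloxone (1 nmol/l) displacement by SPA with WGA beads, using membranes of CHO-K1 cells expressing the receptor, in 50 mmol/l Tris-HCl with 0.05% azide and 0.06% BSA; 90 min at room temperature. Non-specific binding defined with 25 μmol/l naloxone. Value is % inhibition of specific binding at 1 μmol/l test compound.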

Structure (SMILES)	inhibition at 1 µM [%]
CC1CN(c2oc(C(CC3CCC(C(c4cccc(F)c4)N(C)C)CC3)N3CCN(c4ccc(F)cc4)CC3)nc2Cc2ccccc2)CC(C)O1 (centres unmarked) [compound 153, [(4-{2-[4-benzyl-5-(2,6-dimethylmorpholin-4-yl)-oxazol-2-yl]-2-[4-(4-fluorophenyl)-piperazin-1-yl]-ethyl}-cyclohexyl)-(3-fluorophenyl)-methyl]-dimethylamine]	71
COc1ccc(N2CCN(C(CC3CCC(C(c4cccc(F)c4)N(C)C)CC3)c3nc(Cc4ccccc4)c(N4CCOCC4)o3)CC2)cc1 (centres unmarked) [compound 154, [(4-{2-(4-benzyl-5-morpholin-4-yl-oxazol-2-yl)-2-[4-(4-methoxy-phenyl)-piperazin-1-yl]-ethyl}-cyclohexyl)-(3-fluorophenyl)-methyl]-dimethylamine]	86
COc1ccc(N2CCN(c3oc(C(CC4CCC(C(c5cccc(F)c5)N(C)C)CC4)N4CCN(c5ccc(OC)cc5)CC4)nc3Cc3ccccc3)CC2)cc1 (centres unmarked) [compound 155, [(4-{2-{4-benzyl-5-[4-(4-methoxyphenyl)-piperazin-1-yl]-oxazol-2-yl}-2-[4-(4-methoxyphenyl)-piperazin-1-yl]-ethyl}-cyclohexyl)-(3-fluorophenyl)-methyl]-dimethylamine]	82
COc1ccc(N2CCN(C(CC3CCC(C(c4cccc(F)c4)N(C)C)CC3)c3nc(Cc4ccccc4)c(N4CC(C)OC(C)C4)o3)CC2)cc1 (centres unmarked) [compound 156, [(4-{2-[4-benzyl-5-(2,6-dimethylmorpholin-4-yl)-oxazol-2-yl]-2-[4-(4-methoxyphenyl)-piperazin-1-yl]-ethyl}-cyclohexyl)-(3-fluorophenyl)-methyl]-dimethylamine]	74
COc1ccc(N2CCN(c3oc(C(CC4CCC(C(c5cccc(F)c5)N(C)C)CC4)N4CCc5ccccc5C4)nc3Cc3ccccc3)CC2)cc1 (centres unmarked) [compound 157, [{4-[2-{4-benzyl-5-[4-(4-methoxy-phenyl)-piperazin-1-yl]-oxazol-2-yl}-2-(3,4-dihydro-1H-isoquinolin-2-yl)-ethyl]-cyclohexyl}-(3-fluorophenyl)-methyl]-dimethylamine]	84
CN(C)C(c1cccs1)C1CCC(CC(c2nc(Cc3ccccc3)c(N3CCOCC3)o2)N2CCOCC2)CC1 (centres unmarked) [compound 158, ({4-[2-(4-benzyl-5-morpholin-4-yl-oxazol-2-yl)-2-morpholin-4-yl-ethyl]-cyclohexyl}-thiophen-2-yl-methyl)-dimethylamine]	83
COc1ccc(N2CCN(c3oc(C(CC4CCC(C(c5cccs5)N(C)C)CC4)N4CCOCC4)nc3Cc3ccccc3)CC2)cc1 (centres unmarked) [compound 159, {[4-(2-{4-benzyl-5-[4-(4-methoxyphenyl)-piperazin-1-yl]-oxazol-2-yl}-2-morpholin-4-yl-ethyl)-cyclohexyl]-thiophen-2-yl-methyl}-dimethylamine]	94
CC1CN(c2oc(C(CC3CCC(C(c4cccs4)N(C)C)CC3)N3CCOCC3)nc2Cc2ccccc2)CC(C)O1 (centres unmarked) [compound 160, [(4-{2-[4-benzyl-5-(2,6-dimethyl-morpholin-4-yl)-oxazol-2-yl]-2-morpholin-4-yl-ethyl}-cyclohexyl)-thiophen-2-yl-methyl]-dimethylamine]	79
CN(C)C(c1cccs1)C1CCC(CC(c2nc(Cc3ccccc3)c(N3CCOCC3)o2)N2CCN(c3ccc(F)cc3)CC2)CC1 (centres unmarked) [compound 161, [(4-{2-(4-benzyl-5-morpholin-4-yl-oxazol-2-yl)-2-[4-(4-fluorophenyl)-piperazin-1-yl]-ethyl}-cyclohexyl)-thiophen-2-yl-methyl]-dimethylamine]	87
COc1ccc(N2CCN(c3oc(C(CC4CCC(C(c5cccs5)N(C)C)CC4)N4CCN(c5ccc(F)cc5)CC4)nc3Cc3ccccc3)CC2)cc1 (centres unmarked) [compound 162, [(4-{2-{4-benzyl-5-[4-(4-methoxy-phenyl)-piperazin-1-yl]-oxazol-2-yl}-2-[4-(4-fluorophenyl)-piperazin-1-yl]-ethyl}-cyclohexyl)-thiophen-2-yl-methyl]-dimethylamine]	96
COc1ccc(N2CCN(C(CC3CCC(C(c4cccs4)N(C)C)CC3)c3nc(Cc4ccccc4)c(N4CCCC4)o3)CC2)cc1 (centres unmarked) [compound 163, [(4-{2-(4-benzyl-5-pyrrolidin-1-yl-oxazol-2-yl)-2-[4-(4-methoxyphenyl)-piperazin-1-yl]-ethyl}-cyclohexyl)-thiophen-2-yl-methyl]-dimethylamine]	83
COc1ccc(N2CCN(c3oc(C(CC4CCC(C(c5cccs5)N(C)C)CC4)N4CCN(c5ccc(OC)cc5)CC4)nc3Cc3ccccc3)CC2)cc1 (centres unmarked) [compound 164, [(4-{2-{4-benzyl-5-[4-(4-methoxyphenyl)-piperazin-1-yl]-oxazol-2-yl}-2-[4-(4-methoxyphenyl)-piperazin-1-yl]-ethyl}-cyclohexyl)-thiophen-2-yl-methyl]-dimethylamine]	93
COc1ccc(N2CCN(C(CC3CCC(C(c4cccs4)N(C)C)CC3)c3nc(Cc4ccccc4)c(N4CC(C)OC(C)C4)o3)CC2)cc1 (centres unmarked) [compound 165, [(4-{2-[4-benzyl-5-(2,6-dimethyl-morpholin-4-yl)-oxazol-2-yl]-2-[4-(4-methoxyphenyl)-piperazin-1-yl]-ethyl}-cyclohexyl)-thiophen-2-yl-methyl]-dimethylamine]	93
COc1ccc(N2CCN(c3oc(C(CC4CCC(C(c5cccs5)N(C)C)CC4)N4CCc5ccccc5C4)nc3Cc3ccccc3)CC2)cc1 (centres unmarked) [compound 166, ({4-[2-{4-benzyl-5-[4-(4-methoxy-phenyl)-piperazin-1-yl]-oxazol-2-yl}-2-(3,4-dihydro-1H-isoquinolin-2-yl)-ethyl]-cyclohexyl}-thiophen-2-yl-methyl)-dimethylamine]	78
